IC50 data for 2 molecules are collected here from BindingDB's records for doi:10.1016/s0960-894x(00)00323-1 (The University of Newcastle, 2000).

Structures are written as SMILES.

The assay concerns the target Protein phosphatase 1 catalytic subunit (PP1). The experiment in a line: Inhibitory activity against recombinant Protein phosphatase 1.

As for `CCOC(=O)C1C(C(=O)O)[C@@H]2CC[C@H]1O2` (stereo partly drawn) [(1R,4S)-7-Oxa-bicyclo[2.2.1]heptane-2,3-dicarboxylic acid monoethyl ester], the IC50 came out at 2.96 µM.
On to `COC1OC(=O)[C@H]2[C@@H]1[C@@H]1CC[C@H]2O1` (stereo partly drawn) [(1R,2S,6R,7S)-5-Methoxy-4,10-dioxa-tricyclo[5.2.1.0*2,6*]decan-3-one], for which the IC50 is more than 1000 µM.
